Test results: patent publication US12098136B2, “Crystalline forms of lenalidomide” (BIOCON LIMITED, priority 2017, dated 2024)

How the values were obtained:
[1] = Hygroscopicity / weight change; assay type: physicochemical
Thermal stability (neat) = assay type: physicochemical
Mouse = settings: in vivo; cited from earlier work

Row | Compound | weight change [1] | Hygroscopicity ([1]; compared with Lenalidomide hemihydrate) | thermally stable up to (temperature) (Thermal stability (neat)) [°C] | Acute oral toxicity (LD50) (Mouse) [mg/kg]
1 | Nc1cccc2c1CN(C1CCC(=O)NC1=O)C2=O (stereo not shown) [Lenalidomide-Resorcinol co-crystal] | does not exhibit significant weight change | lesser or comparable | ≥ 80 | –
2 | O=C1NS(=O)(=O)c2ccccc21 [Saccharin] | – | – | – | 17000
